The series can be described thus: Surface free energy (work of cohesion) of particles. It is filed as physicochemical. The text has this: This property renders the primary particles very cohesive and prone to aggregation as described by B. Janczuk and T. Bialopiotrowicz, “Surface Free-Energy Components of Liquids and Low Energy Solids and Contact Angles,” in J. Colloid Interf. Sci. 127 (1989), p. 189-204; W. R. Good, “A Comparison of Contact Angle Interpretations,” in J. Colloid Interf. Sci. 44 (1973), p. 63; M. D. Lechner (Ed.), Landolt Börnstein, New Series, Vol. IV/16, “Surface Tension of Pure Liquids and Binary Liquid Mixture,” Springer Verlag, 1998; and J. J. Jasper, “The Surface Tension of Pure Liquid Compounds,” in J. Phys. Chem. Ref. Data, Vol. 1, No. 4, 1972, p. 859. […] Due to these limitations, it was not possible to develop a neratinib maleate formulation comprising a capsule or tablet of higher strength employing a direct compression or roller compaction processes successfully. A formulation using a conventional wet granulation method led to chemical degradation and stability issues.

The structures appear in SMILES notation. Structures can show the parent of a compound that is named as a salt.

For the molecule `CCOc1cc2ncc(C#N)c(Nc3ccc(OCc4ccccn4)c(Cl)c3)c2cc1NC(=O)/C=C/CN(C)C` [Neratinib maleate, (E)-N-(4-(3-chloro-4-(pyridin-2-ylmethoxy)phenylamino)-3-cyano-7-ethoxyquinolin-6-yl)-4-(dimethylamino)but-2-enamide], the “work of cohesion (surface free energy)” value is recorded as 45.62 mN/m.

The values are drawn from US8790708B2, “Coated tablet formulations and uses thereof” (Wyeth LLC, priority 2009, dated 2014).
